± gives the standard deviation of the averaged measurements.
Assays:
Details in all cases: 72 h
Caco-2 [1] = test: cell viability relative to DMSO; higher = less toxic
Calu-3 [2] = test: as above
HepG2 [3] = test: as above
U2OS [4] = test: as above
Vero E6 [5] = test: as above
Caco-2 [6] = test: drug sensitivity score (DSS) for viability; higher = more toxic; extreme values may be limits of the assay
Calu-3 [7] = test: as above
HepG2 [8] = test: as above
U2OS [9] = test: as above
Vero E6 [10] = test: as above
Caco-2 [11] = test: relative viability EC50 (midpoint between 100% and the lowest measured viability); higher = less toxic
Calu-3 [12] = test: as above
HepG2 [13] = test: as above
U2OS [14] = test: as above

Compound	cell viability (Caco-2 [1]; 1 nM) [%]	cell viability (Caco-2 [1]; 10 nM) [%]	cell viability (Caco-2 [1]; 100 nM) [%]	cell viability (Caco-2 [1]; 1000 nM) [%]	cell viability (Caco-2 [1]; 10000 nM) [%]	cell viability (Calu-3 [2]; 1 nM) [%]	cell viability (Calu-3 [2]; 10 nM) [%]	cell viability (Calu-3 [2]; 100 nM) [%]	cell viability (Calu-3 [2]; 1000 nM) [%]	cell viability (Calu-3 [2]; 10000 nM) [%]	cell viability (HepG2 [3]; 1 nM) [%]	cell viability (HepG2 [3]; 10 nM) [%]	cell viability (HepG2 [3]; 100 nM) [%]	cell viability (HepG2 [3]; 1000 nM) [%]	cell viability (U2OS [4]; 1 nM) [%]	cell viability (U2OS [4]; 10 nM) [%]	cell viability (U2OS [4]; 100 nM) [%]	cell viability (U2OS [4]; 1000 nM) [%]	cell viability (U2OS [4]; 10000 nM) [%]	cell viability (Vero E6 [5]; 1 nM) [%]	cell viability (Vero E6 [5]; 100 nM) [%]	cell viability (Vero E6 [5]; 1000 nM) [%]	cell viability (Vero E6 [5]; 10000 nM) [%]	drug sensitivity score (Caco-2 [6])	drug sensitivity score (Calu-3 [7])	drug sensitivity score (HepG2 [8])	drug sensitivity score (U2OS [9])	drug sensitivity score (Vero E6 [10])	cell viability (HepG2 [3]; 10000 nM) [%]	relative viability EC50 (Caco-2 [11]) [µM]	relative viability EC50 (Calu-3 [12]) [µM]	relative viability EC50 (HepG2 [13]) [µM]	relative viability EC50 (U2OS [14]) [µM]	cell viability (Vero E6 [5]; 10 nM) [%]
C[C@@H](NC(=O)CCc1nc2ccccc2c(=O)[nH]1)c1ccccc1 [ME0328]	97.8 ± 16	94 ± 1.2	98.8 ± 2	103 ± 4.3	93.7 ± 9.1	100 ± 5.4	112 ± 15	92 ± 3.1	99.7 ± 8.7	98.3 ± 3.2	98.65 ± 0.78	98.8 ± 4.7	100 ± 4.5	104 ± 1.3	102 ± 1.1	98 ± 1.3	103 ± 1.6	95.8 ± 0.14	95.8 ± 6.4	93.6 ± 7.1	93.8 ± 6	94.2 ± 6.1	94.05 ± 0.071	0	0	0	0	0	–	–	–	–	–	–
O=C(Cc1ccccc1)Nc1nc2ccc(Cl)cc2c2nc(-c3ccco3)nn12 [MRS-1220]	93.7	100	99.4	94.1	101	104	98.2	95.3	94.1	93.5	96.5	93	93.5	95.6	98.8	101	97.2	104	96.9	–	–	–	–	0	0	0	0	–	105	> 10	> 10	> 10	> 10	–
NCCCCN(Cc1nc2ccccc2[nH]1)[C@H]1CCCc2cccnc21	100	93.3	97.1	97.2	104	98.9	93.1	96.2	90.4	89.8	100	104	97.6	105	106	100	97.3	96.6	98.3	–	–	–	–	0	0	0.2	0	–	82.8	> 10	> 10	> 10	> 10	–
Cc1cc(C)c(S(=O)(=O)Nc2cccc(C(F)(F)F)c2)c(C)c1 [m-3M3FBS]	111	98.8	108	98.2	106	94.5	102	95.8	98.9	99.4	101	98.9	93	88.8	101	97	100	103	100	–	–	–	–	0	0	0.4	0	–	90.6	> 10	> 10	> 10	> 10	–
O=C(Nc1ccccc1)N1CCC(Cc2cnc3ccccc3c2)CC1 [PF-750]	106	99.4	94.5	102	88.3	89.9	88.1	114	95.7	95.9	96.6	108	103	98.1	97.2	92	96.8	96.5	97.9	–	–	–	–	0	0	0	0	–	93	> 10	> 10	> 10	> 10	–
Cc1c(C(=O)N2CCOc3ccc(-c4ccc(N)nc4)cc3C2)ccc(S(C)(=O)=O)c1F [XL388]	115	105	103	77.8	43	102	104	103	68.5	33.7	110	115	99.5	92.5	102	101	102	98.3	50.2	110	103	95.6	66.7	6.1	7.7	4.6	2.8	2.3	39	1.2	1.04	2.16	–	108
CCS(=O)(=O)c1ccc2oc(-c3ccc4ccccc4c3)nc2c1 [ezutromid]	103	89	91.4	91.8	90.2	–	–	–	–	–	99.8	121	102	102	101	97.7	105	97.4	97.2	–	–	–	–	0.7	–	0	0	–	94.3	> 10	–	> 10	> 10	–
NS(=O)(=O)c1cc2c(cc1Cl)NCNS2(=O)=O [hydrochlorothiazide]	–	–	–	–	–	–	–	–	–	–	–	–	–	–	–	–	–	–	–	–	–	–	–	–	0	–	0	0	–	–	–	–	–	–
OCc1ccc(-c2ccc(-c3ccc(CO)s3)o2)s1 [RITA]	99.2	103	100	89.4	77.8	102	101	90.6	103	106	107	110	88.3	92.4	95	96.3	102	101	32.4	101	103	102	68	1.9	0	6.5	3.6	1.3	4.6	> 10	> 10	2.51	3.25	103
NC(=O)c1cccc2cn(-c3ccc([C@@H]4CCCNC4)cc3)nc12 [niraparib]	92.7	106	89.9	96.4	88.1	97	104	110	106	97.6	83.9	109	99.4	95.4	101	95.4	101	97.3	106	102	102	95.8	73	0	0	2.5	0	1.7	62.9	> 10	> 10	–	> 10	102
CN(C)CCC(c1ccccc1)c1ccccn1 (stereo unspecified) [pheniramine]	98.1	96.6	93.6	91.6	101	105	95.3	99	94.7	102	96.4	99.8	102	103	99.9	98.8	102	97.6	109	91.4	101	77.9	79.5	0	0	0	0	5.7	101	> 10	> 10	> 10	> 10	57.3
CC(=O)Nc1ccc(CC(=O)O)cc1 [actarit]	96	94	93.7	99.9	96	105	104	117	107	97.8	–	–	–	–	98.1	101	94.8	103	96.4	–	–	–	–	0	0	–	0	–	–	> 10	> 10	–	> 10	–
O=S(=O)(c1cccc2cnccc12)N1CCNCC1 [C-1]	96.8	94.8	105	99.4	104	98.2	91.8	96.3	99.5	123	93.2	105	95	110	–	–	–	–	–	–	–	–	–	0	0	0	–	–	104	> 10	> 10	> 10	–	–
COc1cc(N2CCC(O)CC2)ccc1Nc1cc(Nc2ccccc2S(=O)(=O)C(C)C)c2cc[nH]c2n1 [Mps1-IN-1]	102	92.2	97.4	101	53.9	101	114	90.9	102	85.6	96.5	118	95.2	95.5	103	101	101	98.3	70.2	106	102	98.9	74	2.3	0.1	4.1	1.5	1.2	37.8	–	> 10	2.57	–	103
CCOC(=O)[C@H](Cc1ccc([N+](=O)[O-])cc1)NC(=O)c1ccccc1	104	97.9	102	96.7	90.7	92.9	103	96.8	102	106	99.4	93.2	107	101	101	98.3	98.5	101	102	–	–	–	–	0	0	0	0	–	95.2	> 10	> 10	> 10	> 10	–
NS(=O)(=O)Nc1ncnc(OCCOc2ncc(Br)cn2)c1-c1ccc(Br)cc1	106	94.3	102	93.8	97	88.4	99.1	95.6	104	94.7	102	104	98.9	92.9	97.8	94.5	96.9	102	105	–	–	–	–	0	0	0	0	–	90.9	> 10	> 10	> 10	> 10	–
OCCOCCN1CCN(C(c2ccccc2)c2ccc(Cl)cc2)CC1 (stereo unspecified) [hydroxyzine]	94.2	101	106	101	94	101	115	93.3	106	96.7	101	96.4	104	108	97.9	99.8	96.8	100	93.8	–	–	–	–	0	0	0	0	–	105	> 10	> 10	> 10	> 10	–
